Reference: US10479780B2, “Aminopyrazole derivatives” (Chugai Seiyaku Kabushiki Kaisha, priority 2015, dated 2019)
Like-named read-outs stand apart in the source and are kept apart here.

What was measured:
Format in all cases: biochemical
human Src enzyme = biological target: T1, human Src enzyme (Homo sapiens, UniProt P12931); assay: Src enzyme inhibitory activity (time-resolved fluorometry, biotinylated peptide phosphorylation); settings: read-out: SRC_IC50
T1 construct: purchased Carna Biosciences, Inc. 08-173
T1 sequence (P12931 whole entry): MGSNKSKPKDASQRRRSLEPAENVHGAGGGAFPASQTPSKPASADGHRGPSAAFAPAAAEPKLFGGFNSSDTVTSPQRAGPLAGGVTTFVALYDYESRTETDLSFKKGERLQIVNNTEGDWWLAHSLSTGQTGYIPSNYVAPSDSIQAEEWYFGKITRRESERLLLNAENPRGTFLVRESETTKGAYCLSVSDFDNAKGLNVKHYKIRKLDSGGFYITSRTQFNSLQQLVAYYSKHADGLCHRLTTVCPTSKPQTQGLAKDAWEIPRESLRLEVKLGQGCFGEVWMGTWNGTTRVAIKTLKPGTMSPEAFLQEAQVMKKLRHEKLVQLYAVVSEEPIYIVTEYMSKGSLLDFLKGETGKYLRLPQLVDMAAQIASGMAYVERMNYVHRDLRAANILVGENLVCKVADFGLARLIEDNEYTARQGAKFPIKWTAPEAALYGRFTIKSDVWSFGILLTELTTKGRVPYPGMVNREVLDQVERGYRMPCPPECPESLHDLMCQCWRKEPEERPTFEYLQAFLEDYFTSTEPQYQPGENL
Method in brief: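 Compounds were tested for blocking tyrosine phosphorylation of a biotinylated peptide substrate by recombinant human Src. Phosphorylated product was quantified by time-resolved fluorometry using europium cryptate and XL665 conjugates, and IC50 was calculated against the compound-free control.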

human Yes1 enzyme = biological target: T2, human Yes1 enzyme (Homo sapiens, UniProt P07947); assay: Yes1 enzyme inhibitory activity (time-resolved fluorometry, biotinylated peptide phosphorylation); settings: read-out: YES_IC50
T2 construct: made in house
T2 sequence (P07947 whole entry): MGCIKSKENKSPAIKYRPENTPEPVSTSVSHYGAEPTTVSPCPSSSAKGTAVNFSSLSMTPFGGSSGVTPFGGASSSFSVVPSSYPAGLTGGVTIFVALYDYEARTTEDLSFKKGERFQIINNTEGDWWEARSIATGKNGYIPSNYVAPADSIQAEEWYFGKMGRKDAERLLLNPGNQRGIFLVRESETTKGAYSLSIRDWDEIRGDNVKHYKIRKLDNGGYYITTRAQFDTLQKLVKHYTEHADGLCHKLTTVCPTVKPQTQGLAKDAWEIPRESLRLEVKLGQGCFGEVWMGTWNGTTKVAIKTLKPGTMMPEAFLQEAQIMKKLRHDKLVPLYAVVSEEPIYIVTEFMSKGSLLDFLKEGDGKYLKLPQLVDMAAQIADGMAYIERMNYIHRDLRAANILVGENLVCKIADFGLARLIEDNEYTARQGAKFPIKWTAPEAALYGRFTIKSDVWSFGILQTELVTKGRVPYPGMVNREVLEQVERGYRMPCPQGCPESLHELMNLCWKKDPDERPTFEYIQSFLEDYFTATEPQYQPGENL
Method in brief: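 Inhibition was expressed against a compound-free control to give IC50, using TR-FRET read-out (Eu-cryptate anti-pTyr antibody, streptavidin-XL665).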

human Lck enzyme = biological target: T3, human Lck enzyme (Homo sapiens, UniProt P06239); assay: Lck enzyme inhibitory activity (time-resolved fluorometry, biotinylated peptide phosphorylation); settings: read-out: LCK_IC50
T3 construct: purchased Carna Biosciences, Inc. 08-170
T3 sequence (P06239 whole entry): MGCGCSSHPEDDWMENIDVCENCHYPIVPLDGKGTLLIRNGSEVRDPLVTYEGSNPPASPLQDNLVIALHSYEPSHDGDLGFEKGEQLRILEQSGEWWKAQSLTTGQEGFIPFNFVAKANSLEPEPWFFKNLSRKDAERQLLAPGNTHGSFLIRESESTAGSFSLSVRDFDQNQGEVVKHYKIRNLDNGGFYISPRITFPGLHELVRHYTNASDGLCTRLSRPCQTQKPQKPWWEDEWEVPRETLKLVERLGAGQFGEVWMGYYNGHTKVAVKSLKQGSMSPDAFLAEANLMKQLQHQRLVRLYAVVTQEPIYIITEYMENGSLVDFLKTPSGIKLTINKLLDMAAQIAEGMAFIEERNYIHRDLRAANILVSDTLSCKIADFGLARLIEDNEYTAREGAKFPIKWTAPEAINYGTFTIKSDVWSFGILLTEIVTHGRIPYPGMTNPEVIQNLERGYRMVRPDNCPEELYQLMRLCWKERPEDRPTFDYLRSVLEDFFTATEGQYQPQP
Method in brief: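 Readout pairs a europium cryptate-labelled anti-phosphotyrosine antibody with XL665-streptavidin, measured by time-resolved fluorescence. IC50 derived from percent inhibition against untreated controls.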

[1] = biotinylated peptide phosphorylation

| SMILES | IC50 (human Src enzyme; [1]) [µM] | IC50 (human Yes1 enzyme; [1]) [µM] | IC50 (human Lck enzyme; [1]) [µM] | IC50 (human Src enzyme) [µM] | IC50 (human Yes1 enzyme) [µM] | IC50 (human Lck enzyme) [µM] |
| --- | --- | --- | --- | --- | --- | --- |
| COc1cc2cc(C(=O)c3cnn(-c4ccc(Oc5cccc(F)c5F)cc4C)c3N)[nH]c2cc1NS(C)(=O)=O [Example 4-1-005, N-[2-[5-amino-1-[4-(2,3-difluorophenoxy)-2-methylphenyl]pyrazole-4-carbonyl]-5-methoxy-1H-indol-6-yl]methanesulfonamide] | 0.063 | 0.001 | 0.0078 | – | – | – |
| Cc1cc(Oc2c(F)cccc2F)ncc1-n1ncc(C(=O)c2cc3cc(OC4CCN(C(C)C)CC4)c(NS(C)(=O)=O)cc3[nH]2)c1N [Example 5-1-184, N-[2-[5-amino-1-[6-(2,6-difluorophenoxy)-4-methylpyridin-3-yl]pyrazole-4-carbonyl]-5-(1-propan-2-ylpiperidin-4-yl)oxy-1H-indol-6-yl] methanesulfonamide] | – | – | – | 0.011 | 0.00043 | 0.0026 |
| Cc1cc(Oc2c(F)cccc2F)ncc1-n1ncc(C(=O)c2cc3cc(F)c(N4CCC(N5CCOCC5)CC4)cc3[nH]2)c1N [Example 5-1-112, [5-amino-1-[6-(2,6-difluorophenoxy)-4-methylpyridin-3-yl]pyrazol-4-yl]-[5-fluoro-6-(4-morpholin-4-ylpiperidin-1-yl)-1H-indol-2-yl] methanone] | – | – | – | 0.026 | 0.00081 | 0.0017 |
| Cc1cc(Oc2c(F)cccc2F)ncc1-n1ncc(C(=O)c2cc3cc(F)c(NS(=O)(=O)c4cccc(C#N)n4)cc3[nH]2)c1N [Example 5-1-538, N-[2-[5-amino-1-[6-(2,6-difluorophenoxy)-4-methylpyridin-3-yl]pyrazole-4-carbonyl]-5-fluoro-1H-indol-6-yl]-6-cyanopyridine-2-sulfonamide] | 0.68 | 0.0096 | 0.14 | – | – | – |
| Cc1cc2cc(C(=O)c3cnn(-c4cnc(Oc5ccccc5F)cc4C)c3N)[nH]c2cc1NS(=O)(=O)c1cccc(C#N)c1 [Example 5-1-440, N-[2-[5-amino-1-[6-(2-fluorophenoxy)-4-methylpyridin-3-yl]pyrazole-4-carbonyl]-5-mothyl-1H-indol-6-yl]-3-cyanobenzenesulfonamide] | 0.44 | 0.0037 | 0.13 | – | – | – |
| Cc1cc2cc(C(=O)c3cnn(-c4ccc(Oc5ccccc5F)cc4C)c3N)[nH]c2cc1N1C(=O)NC2(CCCC2)C1=O [Example 5-1-373, 3-[2-[5-amino-1-[4-(2-fluorophenoxy)-2-methylphenyl]pyrazole-4-carbonyl]-5-methyl-1H-indol-6-yl]-1,3-diazaspiro[4.4]nonane-2,4-dione] | – | – | – | 0.048 | 0.0031 | 0.014 |
| Cc1cc(Oc2ccccc2F)ccc1-n1ncc(C(=O)c2cc3cc(OCC(F)F)c(N4C(=O)C(C)(C)NC4=S)cc3[nH]2)c1N [Example 4-23-037, 3-[2-[5-amino-1-[4-(2-fluorophenoxy)-2-methylphenyl]pyrazole-4-carbonyl]-5-(2,2-difluoroethoxy)-1H-indol-6-yl]-5,5-dimethyl-2-sulfanylideneimidazolidin-4-one] | 0.012 | 0.00076 | 0.0067 | – | – | – |
| Cc1cc(Oc2c(F)cccc2F)ncc1-n1ncc(C(=O)c2cc3cc(F)c(NS(=O)(=O)C4CCOCC4)cc3[nH]2)c1N [Example 5-1-381, N-[2-[5-amino-1-[6-(2,6-difluorophenoxy)-4-methylpyridin-3-yl]pyrazole-4-carbonyl]-5-fluoro-1H-indol-6-yl]oxane-4-sulfonamide] | – | – | – | 0.056 | 0.0033 | 0.043 |
| Cc1cc(Oc2ccccc2F)ccc1-n1ncc(C(=O)c2cc3cc(OC(F)F)c(N4C(=O)NC(C)(C)C4=O)cc3[nH]2)c1N [Example 4-23-035, 3-[2-[5-amino-1-[4-(2-fluorophenoxy)-2-methylphenyl]pyrazole-4-carbonyl]-5-(difluoromethoxy)-1H-indol-6-yl]-5,5-dimethylimidazolidine-2,4-dione] | 0.03 | 0.00063 | 0.007 | – | – | – |
| CCN(CC)C(=O)CS(=O)(=O)Nc1cc2[nH]c(C(=O)c3cnn(-c4cnc(Oc5ccccc5F)cc4C)c3N)cc2cc1F [Example 4-10-001, 2-{{2-{5-amino-1-[6-(2-fluorophenoxy)-4-methylpyridin-3-yl]pyrazole-4-carbonyl}-5-fluoro-1H-indol-6-yl}sulfamoyl}-N,N-diethylacetamide] | 0.086 | 0.0021 | 0.018 | – | – | – |
| Cc1cc2cc(C(=O)c3cnn(-c4ccc(Oc5ccccc5F)cc4C)c3N)[nH]c2cc1N1CCCS1(=O)=O [Example 4-2-112, [5-amino-1-[4-(2-fluorophenoxy)-2-methylphenyl]pyrazol-4-yl]-[6-(1,1-dioxo-1,2-thiazolidin-2-yl)-5-methyl-1H-indol-2-yl]methanone] | 0.023 | 0.00093 | 0.0083 | – | – | – |
| Cc1cc(-n2ncc(C(=O)c3cc4cc(OC5CCN(C6CCCC6)CC5)c(-c5ccccc5C(F)(F)F)cc4[nH]3)c2N)ccc1Oc1ccccc1F [Example 5-1-385, (5-amino-1-(4-(2-fluorophenoxy)-3-methylphenyl)-1H-pyrazol-4-yl)(5-((1-cyclopentylpiperidin-4-yl)oxy)-6-(2-(trifluoromethyl)phenyl)-1H-indol-2-yl)methanone] | – | – | – | 2.4 | 0.003 | 0.39 |
| CC(C)N1CCC(c2cc3[nH]c(C(=O)c4cnn(-c5ccc(Oc6cccc(Cl)c6)cc5)c4N)cc3cc2F)CC1 [Example 5-1-008, [5-amino-1-[4-(3-chlorophenoxy)phenyl]pyrazol-4-yl]-[5-fluoro-6-(1-propan-2-ylpiperidin-4-yl)-1H-indol-2-yl]methanone] | – | – | – | 0.06 | 0.0027 | 0.0046 |
| Cc1cc2cc(C(=O)c3cnn(-c4cnc(Oc5cccc(Cl)c5)cc4C)c3N)[nH]c2cc1NS(=O)(=O)N1CCOCC1 [Example 4-2-111, N-[2-[5-amino-1-[6-(3-chlorophenoxy)-4-methylpyridin-3-yl]pyrazole-4-carbonyl]-5-methyl-1H-indol-6-yl]morpholine-4-sulfonamide] | 0.69 | 0.041 | 0.32 | – | – | – |
| Cc1cc(Oc2c(F)cccc2F)ncc1-n1ncc(C(=O)c2cc3cc(OCC(F)F)c(Br)cc3[nH]2)c1N [Example 5-1-080, [5-amino-1-[6-(2,6-difluorophenoxy)-4-methylpyridin-3-yl]pyrazol-4-yl]-[6-bromo-5-(2,2-difluoroethoxy)-1H-indol-2-yl]methanone] | – | – | – | 0.037 | 0.0033 | 0.014 |
| Cc1cc2cc(C(=O)c3cnn(-c4c(C)cc(Oc5cccc(F)c5F)cc4F)c3N)[nH]c2cc1NS(=O)(=O)CCCF [Example 4-2-071, N-[2-[5-amino-1-[4-(2,3-difluorophenoxy)-2-fluoro-6-methylphenyl]pyrazole-4-carbonyl]-5-methyl-1H-indol-6-yl]-3-fluoropropane-1-sulfonamide] | 0.16 | 0.012 | 0.078 | – | – | – |
| Cc1cc(Oc2ccccc2F)ncc1-n1ncc(C(=O)c2cc3cc(OCC(F)F)c(C4CCN(S(C)(=O)=O)CC4)cc3[nH]2)c1N [Example 4-17-021, [5-amino-1-[6-(2-fluorophenoxy)-4-methylpyridin-3-yl]pyrazol-4-yl]-[5-(2,2-difluoroethoxy)-6-(1-methylsulfonylpiperidin-4-yl)-1H-indol-2-yl]methanone] | 0.0097 | 0.00076 | 0.0056 | – | – | – |
| Cc1cc(Oc2ccccc2F)ccc1-n1ncc(C(=O)c2cc3cc(C(C)C)c(NS(=O)(=O)C4CCOCC4)cc3[nH]2)c1N [Example 5-1-282, N-[2-[5-amino-1-[4-(2-fluorophenoxy)-2-methylphenyl]pyrazole-4-carbonyl]-5-propan-2-yl-1H-indol-6-yl]oxane-4-sulfonamide] | – | – | – | 0.2 | 0.0048 | 0.12 |
| Cc1cc(Oc2ccccc2F)ccc1-n1ncc(C(=O)c2cc3cc(OCC(F)F)c(N4CC(C)(C)NS4(=O)=O)cc3[nH]2)c1N [Example 5-1-322, [5-amino-1-[4-(2-fluorophenoxy)-2-methylphenyl]pyrazol-4-yl]-[5-(2,2-difluoroethoxy)-6-(4,4-dimethyl-1,1-dioxo-1,2,5-thiadiazolidin-2-yl)-1H-indol-2-yl]methanone] | – | – | – | 0.07 | 0.0041 | 0.022 |
| Cc1cc(-n2ncc(C(=O)c3cc4cc(OC5CCN(C(C)C)CC5)c(N)cc4[nH]3)c2N)ccc1Oc1ccccc1F [Example 5-1-163, (5-amino-1-(4-(2-fluorophenoxy)-3-methylphenyl)-1H-pyrazol-4-yl)(6-amino-5-((1-isopropylpiperidin-4-yl)oxy)-1H-indol-2-yl)methanone] | – | – | – | 0.059 | 0.00064 | 0.007 |
| Cc1cc(Oc2ccccc2F)ncc1-n1ncc(C(=O)c2cc3cc(F)c(NS(=O)(=O)NC4CC4)cc3[nH]2)c1N [Example 5-1-020, [5-amino-1-[6-(2-fluorophenoxy)-4-methylpyridin-3-yl]pyrazol-4-yl]-[6-(cyclopropylsulfamoylamino)-5-fluoro-1H-indol-2-yl]methanone] | – | – | – | 0.19 | 0.0057 | 0.051 |
| COc1ccnc(S(=O)(=O)Nc2cc3[nH]c(C(=O)c4cnn(-c5ccc(Oc6ccccc6F)cc5C)c4N)cc3cc2C)c1 [Example 5-1-510, N-[2-[5-amino-1-[4-(2-fluorophenoxy)-2-methylphenyl]pyrazole-4-carbonyl]-5-methyl-1H-indol-6-yl]-4-methoxypyridine-2-sulfonamide] | 0.23 | 0.00092 | 0.089 | – | – | – |
